Laboratory results published in PMC7265341, “Quantifying CDK inhibitor selectivity in live cells” (Nature Communications, 2020).
Values joined by “and” are separate entries in the source; they are usually repeats but may differ in a detail not shown here. Equal entries are not always repeated. Where two headings read alike, the source gives them in different places. One block for each compound: values may come before it.

Experiments:
CDK12/Cyclin K = CDK12/Cyclin K (Homo sapiens, UniProt Q9NYV4); experiment: NanoBRET live-cell target engagement, CDK12-NanoLuc/Cyclin K in HEK-293; assay type: binding
all 21 human CDKs = experiment: Live-cell selectivity profile across all 21 CDK/cyclin complexes in HEK-293; assay type: binding; details: remaining CDK family, live HEK-293; read-out: Collateral CDK (potency)
CDK3/Cyclin E1 = CDK3/Cyclin E1 (Homo sapiens, UniProt Q00526); experiment: NanoBRET live-cell target engagement, CDK3-NanoLuc/Cyclin E1 in HEK-293; assay type: binding
CDK6/Cyclin D1 = CDK6/Cyclin D1 (Homo sapiens, UniProt Q00534); experiment: Target engagement analysis in MCF7 cells, NLuc-CDK6/Cyclin D1; assay type: binding; details: Panel C;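 also: MCF7 cells transiently co-transfected with an NLuc-CDK6 fusion plasmid plus a Cyclin D1 expression plasmid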
phospho-Rb (Ser 807/811) = experiment: Endogenous phospho-Rb (Ser 807/811) Lumit immunoassay in MCF7 cells; assay type: cell-based, human; details: for Normalized pRB (%): Panel E;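 as to all read-outs here: Serum-starved cells exposed to compounds for 24 h with 25 ng/mL hEGF, then lysed, phospho-Rb detected by split-luciferase antibody pair luminescence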
CDK4/Cyclin D1 = CDK4/Cyclin D1 (Homo sapiens, UniProt P11802); experiment: Target engagement analysis in MCF7 cells, NLuc-CDK4/Cyclin D1; assay type: binding; details: Panel D;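 also: MCF7 cells transiently transfected to express NLuc-tagged CDK4 together with Cyclin D1, with the assay run in Opti-MEM medium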
[1] = 10µM, average of experiments, read-out: CDK12/K Inhibition at 10µM (%)
[2] = 10µM, independent experiment 1, read-out: CDK12/K Inhibition at 10µM (%)
[3] = 10µM, independent experiment 2, read-out: CDK12/K Inhibition at 10µM (%)
[4] = 10µM, average of experiments, read-out: CDK3/E1 Inhibition at 10µM (%)
[5] = 10µM, independent experiment 1, read-out: CDK3/E1 Inhibition at 10µM (%)
[6] = 10µM, independent experiment 2, read-out: CDK3/E1 Inhibition at 10µM (%)
[7] = LOG10([Compound]) (LOG10(µM)) 0.0457575
[8] = LOG10([Compound]) (LOG10(µM)) 0.522879
[9] = LOG10([Compound]) (LOG10(µM)) 1
[10] = LOG10([Compound]) (LOG10(µM)) -0.431364
[11] = LOG10([Compound]) (LOG10(µM)) -0.908485
[12] = LOG10([Compound]) (LOG10(µM)) -1.38561
[13] = LOG10([Compound]) (LOG10(µM)) -1.86273
[14] = LOG10([Compound]) (LOG10(µM)) -2.33985
[15] = LOG10([Compound]) (LOG10(µM)) -2.81697
[16] = LOG10([Compound]) (LOG10(µM)) -3.29409

Sequence of CDK4/Cyclin D1 (P11802 whole entry): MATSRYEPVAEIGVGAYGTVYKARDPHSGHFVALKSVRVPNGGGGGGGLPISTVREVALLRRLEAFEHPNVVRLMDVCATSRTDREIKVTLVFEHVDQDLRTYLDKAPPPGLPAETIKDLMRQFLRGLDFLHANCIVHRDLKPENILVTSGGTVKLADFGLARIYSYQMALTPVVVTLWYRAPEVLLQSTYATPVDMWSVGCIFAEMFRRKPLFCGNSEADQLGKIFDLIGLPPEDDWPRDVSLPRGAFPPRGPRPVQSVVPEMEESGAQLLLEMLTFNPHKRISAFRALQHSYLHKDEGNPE
Sequence of CDK4/Cyclin D1 (P24385 whole entry partner): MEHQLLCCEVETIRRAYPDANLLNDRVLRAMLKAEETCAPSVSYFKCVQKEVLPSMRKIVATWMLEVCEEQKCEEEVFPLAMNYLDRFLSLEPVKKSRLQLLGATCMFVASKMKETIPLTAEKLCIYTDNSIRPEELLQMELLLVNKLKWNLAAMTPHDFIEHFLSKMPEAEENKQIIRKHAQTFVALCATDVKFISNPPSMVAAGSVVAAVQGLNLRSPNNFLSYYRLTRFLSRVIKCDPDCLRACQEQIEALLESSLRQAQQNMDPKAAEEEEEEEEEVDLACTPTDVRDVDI
Sequence of CDK6/Cyclin D1 (Q00534 whole entry, the tested form may be a part): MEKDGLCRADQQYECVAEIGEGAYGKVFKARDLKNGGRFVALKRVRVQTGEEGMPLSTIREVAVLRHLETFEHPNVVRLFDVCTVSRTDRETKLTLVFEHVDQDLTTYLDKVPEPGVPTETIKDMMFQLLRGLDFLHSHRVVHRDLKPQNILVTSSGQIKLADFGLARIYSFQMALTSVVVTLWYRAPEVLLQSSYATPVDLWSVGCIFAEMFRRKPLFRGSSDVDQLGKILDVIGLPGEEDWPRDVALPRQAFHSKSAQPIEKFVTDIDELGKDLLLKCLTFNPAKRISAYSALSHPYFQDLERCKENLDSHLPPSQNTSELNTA
Sequence of CDK6/Cyclin D1 (P24385 whole entry partner, the tested form may be a part): as the sequence (P24385 whole entry partner) above
Sequence of CDK3/Cyclin E1 (Q00526 whole entry, the tested form may be a part): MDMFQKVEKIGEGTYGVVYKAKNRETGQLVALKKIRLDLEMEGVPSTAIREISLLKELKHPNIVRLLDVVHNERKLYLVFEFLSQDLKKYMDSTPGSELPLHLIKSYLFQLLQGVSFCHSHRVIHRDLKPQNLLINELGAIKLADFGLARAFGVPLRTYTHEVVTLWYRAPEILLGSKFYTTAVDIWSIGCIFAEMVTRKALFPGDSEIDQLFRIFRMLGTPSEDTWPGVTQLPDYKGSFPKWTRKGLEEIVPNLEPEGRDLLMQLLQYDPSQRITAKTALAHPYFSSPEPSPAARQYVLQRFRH
Sequence of CDK3/Cyclin E1 (P24864 whole entry partner, the tested form may be a part): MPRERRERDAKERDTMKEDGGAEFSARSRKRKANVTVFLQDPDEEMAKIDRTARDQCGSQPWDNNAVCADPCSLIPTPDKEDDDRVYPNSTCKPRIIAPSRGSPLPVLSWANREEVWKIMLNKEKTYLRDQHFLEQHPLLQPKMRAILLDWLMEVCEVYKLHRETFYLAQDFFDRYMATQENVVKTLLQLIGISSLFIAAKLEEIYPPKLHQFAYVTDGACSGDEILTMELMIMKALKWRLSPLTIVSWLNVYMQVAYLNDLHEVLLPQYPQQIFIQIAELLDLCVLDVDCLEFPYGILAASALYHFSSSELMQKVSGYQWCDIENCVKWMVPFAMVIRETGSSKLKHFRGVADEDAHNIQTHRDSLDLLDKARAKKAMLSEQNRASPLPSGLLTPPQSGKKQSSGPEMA
Sequence of CDK12/Cyclin K (Q9NYV4 1-1481 isoform Q9NYV4-2): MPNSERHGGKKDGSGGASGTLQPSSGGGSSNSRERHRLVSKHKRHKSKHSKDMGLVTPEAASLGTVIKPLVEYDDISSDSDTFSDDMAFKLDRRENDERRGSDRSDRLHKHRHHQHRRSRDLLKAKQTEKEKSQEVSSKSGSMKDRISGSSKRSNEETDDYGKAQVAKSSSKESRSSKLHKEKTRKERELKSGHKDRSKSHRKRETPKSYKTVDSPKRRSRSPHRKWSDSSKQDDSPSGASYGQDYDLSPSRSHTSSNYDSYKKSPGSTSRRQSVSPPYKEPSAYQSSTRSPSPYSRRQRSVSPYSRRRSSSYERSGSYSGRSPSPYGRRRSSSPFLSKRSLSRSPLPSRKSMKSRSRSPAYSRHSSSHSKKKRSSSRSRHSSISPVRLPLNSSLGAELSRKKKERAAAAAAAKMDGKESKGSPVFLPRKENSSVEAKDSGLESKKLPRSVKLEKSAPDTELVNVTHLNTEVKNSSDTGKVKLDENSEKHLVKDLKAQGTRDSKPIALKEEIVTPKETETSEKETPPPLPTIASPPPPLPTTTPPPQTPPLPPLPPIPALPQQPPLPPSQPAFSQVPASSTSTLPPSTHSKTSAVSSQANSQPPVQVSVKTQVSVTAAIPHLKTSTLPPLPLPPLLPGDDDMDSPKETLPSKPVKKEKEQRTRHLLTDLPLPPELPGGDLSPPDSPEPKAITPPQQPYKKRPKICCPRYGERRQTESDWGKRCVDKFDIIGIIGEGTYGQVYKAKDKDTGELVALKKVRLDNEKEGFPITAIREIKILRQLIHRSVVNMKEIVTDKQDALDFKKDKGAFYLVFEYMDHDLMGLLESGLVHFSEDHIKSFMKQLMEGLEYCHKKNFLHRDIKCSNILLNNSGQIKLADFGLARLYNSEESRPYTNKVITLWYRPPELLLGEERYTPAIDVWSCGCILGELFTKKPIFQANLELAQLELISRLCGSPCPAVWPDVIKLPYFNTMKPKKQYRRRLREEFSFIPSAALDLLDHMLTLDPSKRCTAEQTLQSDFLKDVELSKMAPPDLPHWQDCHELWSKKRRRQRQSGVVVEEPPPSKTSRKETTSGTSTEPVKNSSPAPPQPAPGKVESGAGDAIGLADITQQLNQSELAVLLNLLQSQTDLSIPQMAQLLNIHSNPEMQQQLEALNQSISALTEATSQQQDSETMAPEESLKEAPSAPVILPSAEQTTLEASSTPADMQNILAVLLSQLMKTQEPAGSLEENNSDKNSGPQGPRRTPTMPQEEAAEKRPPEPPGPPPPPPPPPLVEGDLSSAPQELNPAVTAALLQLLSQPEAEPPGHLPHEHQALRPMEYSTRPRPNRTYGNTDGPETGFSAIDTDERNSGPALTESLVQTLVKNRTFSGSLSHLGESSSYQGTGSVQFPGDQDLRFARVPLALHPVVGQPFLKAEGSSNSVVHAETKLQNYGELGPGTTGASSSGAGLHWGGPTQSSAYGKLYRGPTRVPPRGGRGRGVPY
Sequence of CDK12/Cyclin K (O75909 whole entry partner): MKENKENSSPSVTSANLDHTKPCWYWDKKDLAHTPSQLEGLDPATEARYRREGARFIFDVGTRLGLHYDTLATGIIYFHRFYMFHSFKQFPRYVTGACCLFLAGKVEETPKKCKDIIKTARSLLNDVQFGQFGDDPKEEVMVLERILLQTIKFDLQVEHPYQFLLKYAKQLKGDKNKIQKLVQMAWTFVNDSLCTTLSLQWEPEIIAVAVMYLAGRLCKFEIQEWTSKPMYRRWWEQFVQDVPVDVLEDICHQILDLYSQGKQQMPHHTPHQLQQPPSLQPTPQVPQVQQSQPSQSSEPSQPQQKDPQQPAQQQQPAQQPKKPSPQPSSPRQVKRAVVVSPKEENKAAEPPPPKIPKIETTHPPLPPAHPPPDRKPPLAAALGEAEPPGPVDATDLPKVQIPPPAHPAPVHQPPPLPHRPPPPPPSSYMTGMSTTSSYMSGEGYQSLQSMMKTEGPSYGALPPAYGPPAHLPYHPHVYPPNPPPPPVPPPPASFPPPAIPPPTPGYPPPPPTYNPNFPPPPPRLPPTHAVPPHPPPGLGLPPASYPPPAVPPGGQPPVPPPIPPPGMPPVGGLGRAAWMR

SMILES: COC1CN(C(=O)c2ccc3c(N)ncc(-c4ccc(-c5cnn(C)c5)cc4)c3n2)C1 [CCT251545 analog]
inhibition at 10 µM (CDK12/Cyclin K; read-out: Inhibition at 10µM (%), CDK12/K, average): 1.9%
inhibition at 10 µM (CDK12/Cyclin K; read-out: Inhibition at 10µM (%), CDK12/K, experiment 1): 5.9%
inhibition at 10 µM (CDK12/Cyclin K; read-out: Inhibition at 10µM (%), CDK12/K, experiment 2): -2.2%
IC50 (all 21 human CDKs): > 1000 nM
inhibition at 10 µM (CDK3/Cyclin E1; CDK3/E1, average, read-out: Inhibition at 10µM (%)): 0.5%
inhibition at 10 µM (CDK3/Cyclin E1; CDK3/E1, experiment 1, read-out: Inhibition at 10µM (%)): 3.3%
inhibition at 10 µM (CDK3/Cyclin E1; CDK3/E1, experiment 2, read-out: Inhibition at 10µM (%)): -2.3%

SMILES: Cn1cc(-c2ccc(-c3cncc(Cl)c3N3CCC4(CCNC4=O)CC3)cc2)cn1 [CCT251545]
inhibition at 10 µM (CDK12/Cyclin K; CDK12/K, average, read-out: Inhibition at 10µM (%)): -2.2%
inhibition at 10 µM (CDK12/Cyclin K; CDK12/K, experiment 1, read-out: Inhibition at 10µM (%)): 2.5%
inhibition at 10 µM (CDK12/Cyclin K; CDK12/K, experiment 2, read-out: Inhibition at 10µM (%)): -6.8%
IC50 (all 21 human CDKs): > 1000 nM
inhibition at 10 µM (CDK3/Cyclin E1; read-out: Inhibition at 10µM (%), CDK3/E1, average): -2.7%
inhibition at 10 µM (CDK3/Cyclin E1; read-out: Inhibition at 10µM (%), CDK3/E1, experiment 1): -4.5%
inhibition at 10 µM (CDK3/Cyclin E1; read-out: Inhibition at 10µM (%), CDK3/E1, experiment 2): -1%

SMILES: CN(C)C/C=C/C(=O)Nc1ccc(C(=O)N2CCC[C@@H](Nc3ncc(Cl)c(-c4c[nH]c5ccccc45)n3)C2)cc1 [THZ531]
inhibition at 10 µM (CDK12/Cyclin K; [1]): 65.1%
inhibition at 10 µM (CDK12/Cyclin K; [2]): 75.9%
inhibition at 10 µM (CDK12/Cyclin K; [3]): 54.3%
IC50 (CDK12/Cyclin K; independent experiment 1, read-out: CDK12/K IC50): 540 nM
IC50 (CDK12/Cyclin K; independent experiment 2, read-out: CDK12/K IC50): 1000 nM
IC50 (CDK12/Cyclin K; live HEK-293, 2 h, mean ± S.E.M. (n=3) or mean (n=2), read-out: IC50 for CDK/cyclin complexes, CDK12/K): 770 nM
IC50 (CDK12/Cyclin K; live HEK-293, read-out: CDK12 engagement potency): < 1000 nM
CDK12 occupancy at 10 µM (CDK12/Cyclin K; primary screen, live HEK-293): occupied
receptor occupancy at 10 µM (CDK12/Cyclin K; read-out: CDK12 occupancy at 10 µM): ~50%
IC50 (all 21 human CDKs): > 1000 nM
inhibition at 10 µM (CDK3/Cyclin E1; [4]): 61.1%
inhibition at 10 µM (CDK3/Cyclin E1; [5]): 57.1%
inhibition at 10 µM (CDK3/Cyclin E1; [6]): 65.2%

CDK6 Target Occupancy (CDK6/Cyclin D1; [11]): 100.715 and 100.045 and 100 and 101.028
IC50 (phospho-Rb (Ser 807/811); Homo sapiens, MCF7 cells, Panel F pIC50 correlations): 20.9 nM
CDK4 Target Occupancy (CDK4/Cyclin D1; [7]): 104 and 103.238 and 105.143
CDK4 Target Occupancy (CDK4/Cyclin D1; [8]): 109.905 and 105.81 and 108 and 106.476
CDK4 Target Occupancy (CDK4/Cyclin D1; [13]): 99.1429 and 96.1905 and 95.9048
CDK4 Target Occupancy (CDK4/Cyclin D1; [14]): 89.0476 and 92.4762 and 89.4286
CDK4 Target Occupancy (CDK4/Cyclin D1; LOG10([Compound]) (LOG10(µM)) -3.77121): 32.381 and 31.4286 and 33.3333
inhibition at 10 µM (CDK12/Cyclin K; [1]): -2.6%
inhibition at 10 µM (CDK12/Cyclin K; [2]): -5.3%
inhibition at 10 µM (CDK12/Cyclin K; [3]): 0.155%
inhibition at 10 µM (CDK3/Cyclin E1; [4]): 2.3%
inhibition at 10 µM (CDK3/Cyclin E1; [5]): 3.5%
inhibition at 10 µM (CDK3/Cyclin E1; [6]): 1.1%
SMILES: CN1CCN(c2ccc(Nc3ncc4cc5n(c4n3)C3(CCCCC3)CNC5=O)nc2)CC1 [Trilaciclib]
CDK6 Target Occupancy (CDK6/Cyclin D1; [7]): 101.609 and 102.011 and 101.117 and 100.76
CDK6 Target Occupancy (CDK6/Cyclin D1; [8]): 102.28 and 102.861 and 100.67 and 102.905
CDK6 Target Occupancy (CDK6/Cyclin D1; [9]): 101.52 and 101.564 and 101.073 and 101.654
CDK6 Target Occupancy (CDK6/Cyclin D1; [10]): 101.654 and 100.223 and 101.833 and 101.341
CDK6 Target Occupancy (CDK6/Cyclin D1; [12]): 97.5863 and 94.6363 and 95.9772 and 97.2287
CDK6 Target Occupancy (CDK6/Cyclin D1; [13]): 90.9264 and 90.3453 and 90.1218 and 88.5574
CDK6 Target Occupancy (CDK6/Cyclin D1; [14]): 74.567 and 73.0473 and 71.5722 and 77.4723
CDK6 Target Occupancy (CDK6/Cyclin D1; [15]): 30.7185 and 35.6353 and 35.9482 and 37.7808
Normalized pRB (%) (phospho-Rb (Ser 807/811); [7]): 9.9% and 10.9% and 11.1%
Normalized pRB (%) (phospho-Rb (Ser 807/811); [8]): 8.7% and 9.3% and 9.4%
Normalized pRB (%) (phospho-Rb (Ser 807/811); [9]): 9.1% and 9.9% and 10.7%
Normalized pRB (%) (phospho-Rb (Ser 807/811); [10]): 11.9% and 12.2% and 12.8%
Normalized pRB (%) (phospho-Rb (Ser 807/811); [11]): 21.1% and 21.7% and 21.4%
Normalized pRB (%) (phospho-Rb (Ser 807/811); [12]): 39.5% and 43.3% and 40.8%
Normalized pRB (%) (phospho-Rb (Ser 807/811); [13]): 65.2% and 69.5% and 71.9%
Normalized pRB (%) (phospho-Rb (Ser 807/811); [14]): 95% and 98.6% and 94.8%
Normalized pRB (%) (phospho-Rb (Ser 807/811); [15]): 103% and 105.2% and 103.9%
Normalized pRB (%) (phospho-Rb (Ser 807/811); [16]): 100.3% and 111% and 109%
CDK4 Target Occupancy (CDK4/Cyclin D1; [9]): 104.19 and 102.19 and 103.238 and 105.143
CDK4 Target Occupancy (CDK4/Cyclin D1; [10]): 107.333 and 104.381 and 108.571 and 104.286
CDK4 Target Occupancy (CDK4/Cyclin D1; [11]): 102.286 and 102.857 and 103.333 and 103.048
CDK4 Target Occupancy (CDK4/Cyclin D1; [12]): 103.238 and 101.524 and 101.714 and 103.81
CDK4 Target Occupancy (CDK4/Cyclin D1; [15]): 77.4286 and 74.7619 and 73.7143 and 67.1429
CDK4 Target Occupancy (CDK4/Cyclin D1; [16]): 58.1905 and 60.6667 and 56.5714 and 57.0476
